In US20250114338A1, “TETRAHYDRO-PYRIDO[3,4-b]INDOLE ESTROGEN RECEPTOR MODULATORS AND USES THEREOF” (Genentech, Inc., priority 2014, published 2025):
pEC50: −log10 of the molar value.

Tested on: ER-alpha MCF7
Assay: ER-alpha MCF7 HCS EC50; stated as measured by in vitro cell proliferation assays of Examples 902 and 903
Type: cell-based
Details: Homo sapiens, MCF7, MCF7 cells
Description: The CellTiter-Glo® Luminescent Cell Viability Assay is a homogeneous method to determine the number of viable cells in culture based on quantitation of the ATP present, which signals the presence of metabolically active cells. The CellTiter-Glo® Assay is designed for use with multiwell plate formats, making it ideal for automated high-throughput screening (HTS), cell proliferation and cytotoxicity assays. The homogeneous assay procedure involves adding a single reagent (CellTiter-Glo® Reagent) directly to cells cultured in serum-supplemented medium. Cell washing, removal of medium or multiple pipetting steps are not required. The Cell Titer-Glo® Luminescent Cell Viability Assay, including reagents and protocol are commercially available (Promega Corp., Madison, WI, Technical Bulletin TB288).
The assay assesses the ability of compounds to enter cells and inhibit cell proliferation. The assay principle is based on the determination of the number of viable cells present by quantitating the ATP present in a homogenous assay where addition of the Cell Titer-Glo® reagent results in cell lysis and generation of a luminescent signal through the luciferase reaction. The luminescent signal is proportional to the amount of ATP present.
Cell Culture Medium: RPMI or DMEM high glucose, 10% Fetal Bovine Serum, 2 mM L-Glutamine, P/S. Incubate O/N (overnight) at 37° C., 5% CO2.
Day 2—Add Drug to Cells, Compound Dilution, DMSO Plates (serial 1:2 for 9 points). Add 20 μl of compound at 10 mM in the 2nd column of 96 well plate. […] Add 147 μl of Media into all wells. Transfer 3 μl of DMSO+ compound from each well in the DMSO Plate to each corresponding well on Media Plate using Rapidplate® (Caliper, a Perkin-Elmer Co.). For 2 drug combination studies, transfer one drug 1.5 μl of DMSO+ compound from each well in the DMSO Plate to each corresponding well on Media Plate using Rapidplate. Then, transfer another drug 1.5 μl to the medium plate.
Drug Addition to Cells, Cell Plate (1:10 dilution): Add 6 μl of media+ compound directly to cells (54 μl of media on the cells already). Incubate 3 days at 37° C., 5% CO2 in an incubator that will not be opened often.
Day 5—Develop Plates, Thaw Cell Titer Glo Buffer at room temperature: Remove Cell Plates from 37° C. and equilibrate to room temperature for about 30 minutes. Add Cell Titer-Glo® Buffer to Cell Titer-Glo® Substrate (bottle to bottle). Add 30 μl Cell Titer-Glo® Reagent (Promega cat. #G7572) to each well of cells. Place on plate shaker for about 30 minutes. Read luminescence on Analyst HT Plate Reader (half second per well).
Cell viability assays and combination assays: Cells were seeded at 1000-2000 cells/well in 384-well plates for 16 h. On day two, nine serial 1:2 compound dilutions were made in DMSO in a 96 well plate. The compounds were further diluted into growth media using a Rapidplate® robot (Zymark Corp., Hopkinton, MA). The diluted compounds were then added to quadruplicate wells in 384-well cell plates and incubated at 37° C. and 5% CO2. After 4 days, relative numbers of viable cells were measured by luminescence using Cell Titer-Glo® (Promega) according to the manufacturer's instructions and read on a Wallac Multilabel Reader® (PerkinElmer, Foster City). EC50 values were calculated using Prism® 4.0 software (GraphPad, San Diego).
5 ul of each individual compound concentration and each control compound was transferred to the cell plate. Fulvestrant was added to control wells at a final concentration of 100 nM). DMSO was added to negative control wells (0.2% v/v).

SMILES	pEC50 (Table 2)	pEC50 (Table 1)
C[C@@H]1Cc2c([nH]c3ccccc23)[C@@H](c2c(F)cc(OCCN3CC(CF)C3)cc2F)N1C(=O)C1CC(F)C1 (stereo in doubt) [Example 203, [1-[2,6-difluoro-4-[2-[3-(fluoromethyl)azetidin-1-yl]ethoxy]phenyl]-3-methyl-1,3,4,9-tetrahydropyrido[3,4-b]indol-2-yl]-(3-fluorocyclobutyl)methanone]	8.40	
CC(CN1[C@H](c2c(F)cc(OC3CN(CCCF)C3)cc2F)c2[nH]c3ccccc3c2C[C@H]1C)C(=O)O (stereo in doubt) [Example 350, 3-[1-[2,6-difluoro-4-[1-(3-fluoropropyl)azetidin-3-yl]oxy-phenyl]-3-methyl-1,3,4,9-tetrahydropyrido[3,4-b]indol-2-yl]-2-methyl-propanoic acid]	7.85	
C[C@@H]1Cc2c([nH]c3ccccc23)[C@@H](c2ccc(OCCN3CC(CF)C3)nc2)N1CC(C)(C)F [Example 111, (1R,3R)-2-(2-fluoro-2-methylpropyl)-1-(6-(2-(3-(fluoromethyl)azetidin-1-yl)ethoxy)pyridin-3-yl)-3-methyl-2,3,4,9-tetrahydro-1H-pyrido[3,4-b]indole]		9.05
C[C@@H]1Cc2c([nH]c3ccccc23)[C@@H](c2ncc(OCCN3CC(CF)C3)cc2F)N1CC(C)(C)F [Example 112, (1S,3R)-2-(2-fluoro-2-methylpropyl)-1-(3-fluoro-5-(2-(3-(fluoromethyl)azetidin-1-yl)ethoxy)pyridin-2-yl)-3-methyl-2,3,4,9-tetrahydro-1H-pyrido[3,4-b]indole]		10.04
C[C@@H]1Cc2c([nH]c3ccccc23)[C@@H](c2c(F)cc(OCCN3CC(CF)C3)cc2F)N1CC1(C)COC1 [Example 114, (1R,3R)-1-(2,6-difluoro-4-(2-(3-(fluoromethyl)azetidin-1-yl)ethoxy)phenyl)-3-methyl-2-((3-methyloxetan-3-yl)methyl)-2,3,4,9-tetrahydro-1H-pyrido[3,4-b]indole]		9.15
C[C@@H]1Cc2c([nH]c3ccccc23)[C@@H](c2c(F)cc(OCCN3CC(CF)C3)cc2F)N1CC(C)(C)O [Example 127, 1-[(1R,3R)-1-[2,6-difluoro-4-[2-[3-(fluoromethyl)azetidin-1-yl]ethoxy]phenyl]-3-methyl-1,3,4,9-tetrahydropyrido[3,4-b]indol-2-yl]-2-methyl-propan-2-ol]	9.19	
CC(C)(F)CN1[C@@H](CO)Cc2c([nH]c3ccccc23)[C@@H]1c1c(F)cc(OCCN2CC(CF)C2)cc1F [Example 131, ((1S,3R)-1-(2,6-difluoro-4-(2-(3-(fluoromethyl)azetidin-1-yl)ethoxy)phenyl)-2-(2-fluoro-2-methylpropyl)-2,3,4,9-tetrahydro-1H-pyrido[3,4-b]indol-3-yl)methanol]	9.84	
C[C@@H]1Cc2c([nH]c3ccccc23)[C@@H](c2c(F)cc(OC3CNC3)cc2F)N1CC(C)(C)F [Example 132, (1R,3R)-1-[4-(azetidin-3-yloxy)-2,6-difluoro-phenyl]-2-(2-fluoro-2-methyl-propyl)-3-methyl-1,3,4,9-tetrahydropyrido[3,4-b]indole]	9.51	
C[C@@H]1Cc2c([nH]c3ccccc23)[C@@H](c2ccc(OCCN3CC(CF)C3)cc2F)N1CC(C)(C)F [Example 133, (1R,3R)-2-(2-fluoro-2-methylpropyl)-1-(2-fluoro-4-(2-(3-(fluoromethyl)azetidin-1-yl)ethoxy)phenyl)-3-methyl-2,3,4,9-tetrahydro-1H-pyrido[3,4-b]indole]	10.25	
C[C@@H]1Cc2c([nH]c3ccccc23)[C@@H](c2c(F)cc(OCCN3CC(CF)C3)cc2F)N1C1CCC1 [Example 134, (1R,3R)-2-cyclobutyl-1-[2,6-difluoro-4-[2-[3-(fluoromethyl)azetidin-1-yl]ethoxy]phenyl]-3-methyl-1,3,4,9-tetrahydropyrido[3,4-b]indole]	9.27	
CC(C)(F)CN1[C@H](CF)Cc2c([nH]c3ccccc23)[C@H]1c1c(F)cc(OCCN2CC(CF)C2)cc1F [Example 135, (1R,3S)-1-[2,6-difluoro-4-[2-[3-(fluoromethyl)azetidin-1-yl]ethoxy]phenyl]-3-(fluoromethyl)-2-(2-fluoro-2-methyl-propyl)-1,3,4,9-tetrahydropyrido[3,4-b]indole]	10.01	
C[C@@H]1Cc2c([nH]c3ccccc23)[C@@H](c2c(F)cc(OCCN3CC(CF)C3)cc2F)N1CC1(F)COC1 [Example 136, (1R,3R)-1-[2,6-difluoro-4-[2-[3-(fluoromethyl)azetidin-1-yl]ethoxy]phenyl]-2-[(3-fluorooxetan-3-yl)methyl]-3-methyl-1,3,4,9-tetrahydropyrido[3,4-b]indole]	9.94	
C[C@@H]1Cc2c([nH]c3ccccc23)[C@@H](c2c(F)cc(OCCN3CC(CF)C3)cc2F)N1C(=O)C1CCCCC1 [Example 137, cyclohexyl((1R,3R)-1-(2,6-difluoro-4-(2-(3-(fluoromethyl)azetidin-1-yl)ethoxy)phenyl)-3-methyl-3,4-dihydro-1H-pyrido[3,4-b]indol-2(9H)-yl)methanone]	7.55	
C[C@@H]1Cc2c([nH]c3ccccc23)[C@@H](c2c(F)cc(OCCN3CC(CF)C3)cc2F)N1C(=O)C(C)(C)C [Example 138, 1-[(1R,3R)-1-[2,6-difluoro-4-[2-[3-(fluoromethyl)azetidin-1-yl]ethoxy]phenyl]-3-methyl-1,3,4,9-tetrahydropyrido[3,4-b]indol-2-yl]-2,2-dimethyl-propan-1-one]	9.31	
C[C@@H]1Cc2c([nH]c3ccccc23)[C@@H](c2c(F)cc(OCCN3CC(CF)C3)cc2F)N1C(=O)C1CC1 [Example 139, cyclopropyl((1R,3R)-1-(2,6-difluoro-4-(2-(3-(fluoromethyl)azetidin-1-yl)ethoxy)phenyl)-3-methyl-3,4-dihydro-1H-pyrido[3,4-b]indol-2(9H)-yl)methanone]	8.61	
CC1CN(CCOc2cc(F)c([C@@H]3c4[nH]c5ccccc5c4C[C@@H](C)N3CC(C)(C)F)c(F)c2)C1 [Example 140, (1R,3R)-1-[2,6-difluoro-4-[2-(3-methylazetidin-1-yl)ethoxy]phenyl]-2-(2-fluoro-2-methyl-propyl)-3-methyl-1,3,4,9-tetrahydropyrido[3,4-b]indole]	9.89	
C[C@@H]1CCN(CCOc2cc(F)c([C@@H]3c4[nH]c5ccccc5c4C[C@@H](C)N3CC(C)(C)F)c(F)c2)C1 [Example 141, (1R,3R)-1-(2,6-difluoro-4-(2-((R)-3-methylpyrrolidin-1-yl)ethoxy)phenyl)-2-(2-fluoro-2-methylpropyl)-3-methyl-2,3,4,9-tetrahydro-1H-pyrido[3,4-b]indole]	9.82	
C[C@@H]1Cc2c([nH]c3ccccc23)[C@@H](c2c(F)cc(OC[C@H](C)N3CCCC3)cc2F)N1CC(C)(C)F [Example 142, (1R,3R)-1-[2,6-difluoro-4-[(2S)-2-pyrrolidin-1-ylpropoxy]phenyl]-2-(2-fluoro-2-methyl-propyl)-3-methyl-1,3,4,9-tetrahydropyrido[3,4-b]indole]	10.05	
C[C@@H]1Cc2c([nH]c3ccccc23)[C@@H](c2c(F)cc(OCCCN3CC(CF)C3)cc2F)N1CC(C)(C)F [Example 143, (1R,3R)-1-[2,6-difluoro-4-[3-[3-(fluoromethyl)azetidin-1-yl]propoxy]phenyl]-2-(2-fluoro-2-methyl-propyl)-3-methyl-1,3,4,9-tetrahydropyrido[3,4-b]indole]	10.11	
C[C@@H]1Cc2c([nH]c3ccccc23)[C@@H](c2c(F)cc(/C=C/CN3CC(CF)C3)cc2F)N1CC(C)(C)F [Example 144, (1R,3R)-1-[2,6-difluoro-4-[(E)-3-[3-(fluoromethyl)azetidin-1-yl]prop-1-enyl]phenyl]-2-(2-fluoro-2-methyl-propyl)-3-methyl-1,3,4,9-tetrahydropyrido[3,4-b]indole]	9.84	
